Measurements from patent publication US6962918B2, “Hexahydropyrazino[1'2';1,6]pyrido[3,4-b]indole-1,4-diones for the treatment of cardiovascular disorders and erectile dysfunction” (Lilly Icos LLC., priority 2000, dated 2005).

Tests used:
recombinant human PDE5 = recombinant human PDE5 (Homo sapiens, UniProt O76074); assay: Inhibitory effect on cGMP-PDE (PDE5 IC50), one-step assay adapted from Wells et al.; assay type: biochemical; conditions: 0.15 μM 8-[H3]-cGMP, 30 minutes incubation, 2% DMSO
Procedure: The compounds of structural formula (I) were tested for an ability to inhibit PDE5. The ability of a compound to inhibit PDE5 activity is related to the IC50 value for the compound, i.e., the concentration of inhibitor required for 50% inhibition of enzyme activity. The IC50 value for compounds of structural formula (I) were determined using recombinant human PDE5.
(§1) cGMP-PDE activity of compounds of the present invention was measured using a one-step assay adapted from Wells et al., Biochim. Biophys. Acta, 384, 430 (1975). The reaction medium contained 50 mM Tris-HCl, pH 7.5, 5 mM magnesium acetate, 250 μg/ml 5′-Nucleotidase,1 mM ECTA, and 0.15 μM 8-[H^3]-cGMP. Unless otherwise indicated, the enzyme used was a human recombinant PDE5 (ICOS Corp., Bothell, Wash.).
(§2) Compounds of the invention were dissolved in DMSO finally present at 2% in the assay.

PDE5 (bovine aorta) = target: T1, PDE5 (bovine aorta) (Bos taurus, UniProt Q28156); assay: Inhibitory effect on cGMP-PDE (PDE5 IC50), bovine aorta enzyme; assay type: biochemical; conditions: enzyme marked (bovine aorta) in the cell
T1 construct: from tissue; host or cells: bovine aorta
Procedure: as §1, §2

Row | Structure (SMILES) | IC50 (recombinant human PDE5) [nM] | IC50 (PDE5 (bovine aorta)) [nM] | melting point [°C]
1 | CC(C)C[C@H]1c2[nH]c3ccccc3c2C[C@H]2C(=O)N(C)CC(=O)N21 (racemic) [Example 19, (+−,cis)-6-Isobutyl-2-methyl-2,3,6,7,12,12a-hexa-hydropyrazino[1′2′:1,6]pyrido[3,4-b]indole-1,4-dione] | 4800 |  | 
2 | CN1CC(=O)N2[C@@H](C3CCCCC3)c3[nH]c4ccccc4c3C[C@H]2C1=O (racemic) [Example 20, (+−, cis)-6-Cyclohexyl-2-methyl-2,3,6,7,12,12a-hexa-hydropyrazino[1′2′:1,6]pyrido[3,4-b]indole,1,4-dione] |  | 230 | 
3 | CN1CC(=O)N2[C@@H](c3cc4ccccc4o3)c3[nH]c4ccccc4c3C[C@H]2C1=O [Example 1, (6R,12aS)-6-benzofuran-2-yl-2-methyl-2,3,6,7,12,12a-hexahydro-pyrazino [1′,2′:1,6]pyrido[3,4-b]indole-1,4-dione] | 130 |  | 
4 | CN1CC(=O)N2[C@H](c3cc4ccccc4o3)c3[nH]c4ccccc4c3C[C@H]2C1=O [Example 2] | 8730 |  | 195 to 198
5 | CN1CC(=O)N2[C@H](c3cc4ccccc4o3)c3[nH]c4ccccc4c3C[C@@H]2C1=O [Example 3, (6S,12aR)-6-benzofuran-2-yl-2-methyl-2,3,6,7,12,12a-hexahydropyrazino[1′,2′:1,6]-pyrido[3,4-b]indole-1,4-dione] | 16 |  | 265 to 268
6 | CN1CC(=O)N2[C@@H](c3cc4ccccc4o3)c3[nH]c4ccccc4c3C[C@@H]2C1=O [Example 4] | 880 |  | 
7 | Cc1c([C@H]2c3[nH]c4ccccc4c3C[C@H]3C(=O)N(C)CC(=O)N23)sc2ccccc12 [Example 5, (6R,12aS)-2-methyl-6-(e-methyl-benzo[b]thiophen-2-yl)-2,3,6,7,12,12a-hexahydro-pyrazino[1′,2′:1,6]pyrido[3,4-b]indole-1,4-dione] | 25 |  | 230 to 234
8 | Cc1c([C@@H]2c3[nH]c4ccccc4c3C[C@H]3C(=O)N(C)CC(=O)N23)sc2ccccc12 [Example 6] | 40 |  | 
9 | Cc1c([C@H]2c3[nH]c4ccccc4c3C[C@@H]3C(=O)N(C)CC(=O)N23)sc2ccccc12 [Example 7, (6R,12aR)-2-methyl-6-(3-methylbenzo[b]thiophen-2-yl)-2,3,6,7,12,12a-hexahydropyrazino[1′2′:1,6]-pyrido[3,4-b]indole-1,4-dione] | 1570 |  | 
10 | Cc1c([C@@H]2c3[nH]c4ccccc4c3C[C@@H]3C(=O)N(C)CC(=O)N23)sc2ccccc12 [Example 8] | 1 |  | 
11 | CN1CC(=O)N2[C@H](c3cc4ccoc4s3)c3[nH]c4ccccc4c3C[C@@H]2C1=O [Example 9] | 12 |  | 
12 | COC[C@@H]1c2[nH]c3ccccc3c2C[C@@H]2C(=O)N(C)CC(=O)N21 [Example 15] | 333 |  | 
13 | CN1CC(=O)N2[C@H](Cc3c([nH]c4ccccc34)[C@H]2COCc2ccccc2)C1=O [Example 16, (6S,12aR)-6-Benzyloxymethyl-2-methyl-2,3,6,7,12,12a-hexahydropyrazino[1′2′:1,6]pyrido-[3,4-b]indole-1,4-dione] | 1500 |  | 181 to 187
14 | CN1CC(=O)N2[C@H](Cc3c([nH]c4ccccc34)[C@H]2CO)C1=O [Example 17, (6S,12aR)-6-Hydroxymethyl-2-methyl-2,3,6,7,12,12a-hexahydropyrazino-[1′2′:1,6]pyrido[3,4-b]indole-1,4-dione] | 23000 |  | 
15 | COCOC[C@@H]1c2[nH]c3ccccc3c2C[C@@H]2C(=O)N(C)CC(=O)N21 [Example 18, (6S,12aR)-Methoxymethoxymethyl-2-methyl-2,3,6,7,12,12a-hexahydropyrazino-[1′,2′:1,6]pyrido[3,4-b]indole-1,4-dione] | 195 |  | 180 to 185
16 | CN1CC(=O)N2[C@@H](C3CC=CCC3)c3[nH]c4ccccc4c3C[C@H]2C1=O (stereo partly drawn) [Example 21, (+−, cis)-6-Cyclohex-3-enyl-2-methyl-2,3,6,7,12,12a-hexahydropyrazino[1′2′:1,6]pyrido[3,4-b]indole-1,4-dione] | 560 |  | 
